ChEMBL document CHEMBL5214884, “Recent research progress of Uncaria spp. based on alkaloids: phytochemistry, pharmacology and structural chemistry” (Eur J Med Chem, 2021)

How the values were obtained:
RAW264.7 = test: Inhibition of LPS-induced NO release in mouse RAW264.7 cells preincubated for 2 hrs followed by LPS addition measured after 24 hrs; assay type: functional, cell-based
[1] = Inhibition of human carboxylesterase using 4-benzoyl-N-butyl-1,8-naphthalimide as substrate by fluorescence based assay
[2] = Inhibition of alpha glucosidase (unknown origin) using p-nitrophenyl-a-D-glucopyranoside as substrate incubated for 20 mins by UV based microplate reading method; design: species or system Homo sapiens
[3] = Inhibition of LPS-induced NO release in mouse N9 microglial cells measured after 48 hrs by Griess reaction assay; assay type: functional, cell-based; conditions: N9, 48 h
Acetylcholinesterase [4] = target: T1, Acetylcholinesterase (Homo sapiens, UniProt P22303); test: Inhibition of AChE (unknown origin) using acetylcholine as substrate by BioTek Synergy HT microplate reader method
Rattus norvegicus = test: Hypotensive effect against Phe-induced contraction in rat mesentric arteries assessed as relaxation effect […]; assay type: functional
[5] = target: T2, Melatonin receptor type 1A (Homo sapiens, UniProt P48039); test: Agonist activity at human MT1R stably expressed in HEK293 cells by FlexStation3 Bench-top MultiMode Microplate Reader; assay type: functional, cell-based
[6] = target: T3, Melatonin receptor type 1B (Homo sapiens, UniProt P49286); test: Agonist activity at human MT2R stably expressed in HEK293 cells by FlexStation3 Bench-top MultiMode Microplate Reader; assay type: functional, cell-based
T3 sequence (P49286 whole entry): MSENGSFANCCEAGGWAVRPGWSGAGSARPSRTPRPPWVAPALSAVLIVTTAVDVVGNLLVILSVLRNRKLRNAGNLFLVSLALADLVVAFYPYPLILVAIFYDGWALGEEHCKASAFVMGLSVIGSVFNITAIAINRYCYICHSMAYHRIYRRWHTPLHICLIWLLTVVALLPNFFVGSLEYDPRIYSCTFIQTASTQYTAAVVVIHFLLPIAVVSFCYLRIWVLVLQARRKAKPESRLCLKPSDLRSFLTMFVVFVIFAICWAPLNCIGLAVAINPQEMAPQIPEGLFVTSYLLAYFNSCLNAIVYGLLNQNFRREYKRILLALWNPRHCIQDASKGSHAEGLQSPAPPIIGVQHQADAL

[7] = Inhibition of alpha glucosidase (unknown origin) using p-nitrophenyl alpha-D-glucoside as substrate preincubated for 60 mins followed by substrate addition measured after 30 mins by spectrophotometric analysis; design: species or system Homo sapiens
Mus musculus [8] = species on record: Mus musculus; test: Antiinflammatory activity against Balb/c mouse serum assessed as inhibition of IL-17 release measured after 2 hrs by cytokine Elisa multiplex Q-plex system method relative to control; assay type: functional; design: scale not given: the % may be the effect or the level left
Mus musculus [9] = species on record: Mus musculus; test: Antiinflammatory activity against Balb/c mouse serum assessed as inhibition of IL-1alpha release measured after 2 hrs by cytokine Elisa multiplex Q-plex system method relative to control; assay type: functional; design: scale not given: the % may be the effect or the level left
Mus musculus [10] = species on record: Mus musculus; test: Antiinflammatory activity against Balb/c mouse serum assessed as inhibition of IL-1beta release measured after 2 hrs by cytokine Elisa multiplex Q-plex system method relative to control; assay type: functional; design: scale not given: the % may be the effect or the level left
Mus musculus [11] = species on record: Mus musculus; test: Antiinflammatory activity against Balb/c mouse serum assessed as reduction of IL-4 release measured after 2 hrs by cytokine Elisa multiplex Q-plex system method relative to control; assay type: functional; design: scale not given: the % may be the effect or the level left
Mus musculus [12] = species on record: Mus musculus; test: Antiinflammatory activity against Balb/c mouse serum assessed as inhibition of TNF-alpha release measured after 2 hrs by cytokine Elisa multiplex Q-plex system method relative to control; assay type: functional; design: scale not given: the % may be the effect or the level left
PC-12 [13] = test: Neuroprotective activity against mNGF-differentiated rat PC-12 cells assessed as inhibition of caspase 9; assay type: functional, cell-based
PC-12 [14] = test: Neuroprotective activity against mNGF-differentiated rat PC-12 cells assessed as inhibition of caspase 3; assay type: functional, cell-based
[15] = target: T2, Melatonin receptor type 1A; test: Agonist activity at human MT1R stably expressed in HEK293 cells at 1 mM by FlexStation3 Bench-top MultiMode Microplate Reader relative to control; assay type: functional, cell-based; conditions: filed as agonist
[16] = target: T4, Melatonin receptor type 1B (Homo sapiens) (UniProt P49286); test: Agonist activity at human MT2R stably expressed in HEK293 cells at 1 mM by FlexStation3 Bench-top MultiMode Microplate Reader relative to control; assay type: functional, cell-based; conditions: filed as agonist
T4 sequence (whole entry): T3 sequence (P49286 whole entry)

Acetylcholinesterase [17] = target: T1, Acetylcholinesterase; test: Inhibition of AChE (unknown origin) incubated for 20 mins by Ellman's method

T2 sequence (P48039 whole entry): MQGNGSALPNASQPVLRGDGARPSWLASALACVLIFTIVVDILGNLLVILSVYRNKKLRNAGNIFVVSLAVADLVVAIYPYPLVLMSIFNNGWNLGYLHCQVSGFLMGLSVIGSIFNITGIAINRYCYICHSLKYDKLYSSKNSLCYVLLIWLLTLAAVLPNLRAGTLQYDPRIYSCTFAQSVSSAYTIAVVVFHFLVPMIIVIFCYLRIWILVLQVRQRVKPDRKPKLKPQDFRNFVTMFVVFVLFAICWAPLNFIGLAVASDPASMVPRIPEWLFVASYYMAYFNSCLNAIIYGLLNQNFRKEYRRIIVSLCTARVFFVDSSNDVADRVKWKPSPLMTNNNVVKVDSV
T1 sequence (P22303 whole entry): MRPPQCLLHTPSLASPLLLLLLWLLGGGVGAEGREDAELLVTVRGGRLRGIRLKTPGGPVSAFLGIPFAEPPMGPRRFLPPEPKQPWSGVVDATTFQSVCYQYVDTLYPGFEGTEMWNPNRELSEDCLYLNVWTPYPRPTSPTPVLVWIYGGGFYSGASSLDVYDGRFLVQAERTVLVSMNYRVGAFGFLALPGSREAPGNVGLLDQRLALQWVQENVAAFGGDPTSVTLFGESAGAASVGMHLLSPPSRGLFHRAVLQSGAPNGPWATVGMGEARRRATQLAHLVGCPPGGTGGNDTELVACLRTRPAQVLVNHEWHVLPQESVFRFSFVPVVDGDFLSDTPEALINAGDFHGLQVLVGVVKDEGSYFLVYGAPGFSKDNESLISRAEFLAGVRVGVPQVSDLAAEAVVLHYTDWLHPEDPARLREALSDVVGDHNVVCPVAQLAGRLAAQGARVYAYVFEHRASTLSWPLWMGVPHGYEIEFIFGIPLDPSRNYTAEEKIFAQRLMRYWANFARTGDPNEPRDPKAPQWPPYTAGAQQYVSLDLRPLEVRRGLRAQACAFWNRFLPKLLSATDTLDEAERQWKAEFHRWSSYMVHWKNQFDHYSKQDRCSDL

Q: For C=C1CC[C@]2(C(=O)O)CC[C@]3(C)C(=CC[C@@H]4[C@@]5(C)CC[C@H](O)C(C)(C)[C@@H]5[C@H](O)C[C@]43C)[C@@H]2[C@]1(C)O, which IC50 (RAW264.7) is on record?
A: 1.48 µM

Q: Which IC50 [1] does the source give for C[C@H]1[C@H](C)CC[C@]2(C(=O)O)CC[C@]3(C)C(=CC[C@@H]4[C@@]5(C)CC[C@H](O)C(C)(C)[C@@H]5[C@H](O)C[C@]43C)[C@H]12 here?
A: 4.01 µM

Q: With Oc1cc(O)c2c(c1)O[C@H](c1ccc(O)c(O)c1)[C@@H](O)[C@@H]2c1c(O)cc(O)c2c1O[C@H](c1ccc(O)c(O)c1)[C@@H](O)C2 as the molecule, how does the IC50 [2] read?
A: 17.3 µM

Q: With C=C[C@@H]1C(C[C@@H]2NCCc3c2[nH]c2ccccc32)C(C(=O)OC)=CO[C@H]1O[C@@H]1O[C@H](CO)[C@@H](O)[C@H](O)[C@H]1O (stereo partly specified) as the molecule, how does the IC50 [3] read?
A: 8.3 µM

Q: For C/C=C1\CN2CCc3c([nH]c4ccccc34)[C@@H]2C[C@@H]1/C(=C\OC)C(=O)OC, which IC50 (Acetylcholinesterase [4]) is on record?
A: 63.9 µM

Q: For Cc1cc2c(cc1O)OC1(CC1)C(O)C2 (stereo unspecified), which IC50 [2] is on record?
A: 15.5 µM

Q: Which IC50 [2] does the source give for O=C1CC[C@H](Cc2ccc(O)c(O)c2)O1 here?
A: 27 µM

Q: For CC[C@H]1CN2CCc3c([nH]c4ccccc34)[C@H]2C[C@H]1/C(=C\OC)C(=O)OC, which IC50 (Rattus norvegicus) is on record?
A: 0.18 µM

Q: With C[C@H]1[C@H](C)CC[C@]2(C(=O)O)CC[C@]3(C(=O)/C=C/c4ccc(O)cc4)C(=CC[C@@H]4[C@@]5(C)CC[C@H](O)C(C)(C)[C@@H]5CC[C@]43C)[C@H]12 as the molecule, how does the IC50 (RAW264.7) read?
A: 7.01 µM

Q: What does the source list for Oc1cc(O)c2c(c1)O[C@H](c1ccc(O)c(O)c1)[C@@H](O)C2 [CIANIDANOL]?
A: EC50 [5]: 25.8 µM; EC50 [6]: 47.3 µM

Q: What does the source list for C[C@H]1[C@H](C)CC[C@]2(C(=O)O)CC[C@]3(C)C(=CC[C@@H]4[C@@]5(C)CC[C@H](O)C(C)(C)[C@@H]5CC[C@]43C)[C@H]12 [URSOLIC ACID]?
A: IC50 [7]: 16 µM; IC50 [1]: 4.01 µM

Q: For COC(=O)C1=CO[C@@H](C)[C@H]2CN3CC[C@]4(C(=O)Nc5ccccc54)[C@@H]3CC12 (stereo partly specified), which Activity (Mus musculus [8]) is on record?
A: 50%

Q: And the Activity (Mus musculus [9])?
A: 50%

Q: And the Activity (Mus musculus [10])?
A: 50%

Q: What about the Activity (Mus musculus [11]) of the same molecule?
A: 40%

Q: And the Activity (Mus musculus [12])?
A: 50%

Q: With COCC1=C(C)[C@H]2C3=CC[C@@H]4[C@@]5(C)CC[C@H](O)C(C)(C)[C@@H]5C(=O)C[C@@]4(C)[C@]3(C)CC[C@@]2(C(=O)O)CC1 as the molecule, how does the IC50 [7] read?
A: 49 µM

Q: With CO[C@H]1C=C2[C@@H]3C[C@H](C)CC[C@]3(C(=O)O)CC[C@@]2(C)[C@]2(C)CC[C@H]3C(C)(C)[C@@H](O)CC[C@]3(C)[C@@H]12 as the molecule, how does the IC50 [1] read?
A: 4.01 µM

Q: Which results are given for C=C[C@H]1[C@H](O[C@@H]2O[C@H](CO)[C@@H](O)[C@H](O)[C@H]2O)OC=C(C(=O)OC)[C@H]1C[C@@H]1N[C@H](C(=O)O)Cc2c1[nH]c1ccccc21?
A: IC50 (PC-12 [13]): 24.5 µM; IC50 (PC-12 [14]): 25.6 µM

Q: Which Activity [15] does the source give for C=C[C@H]1[C@H](O[C@@H]2O[C@H](CO)[C@@H](O)[C@H](O)[C@@H]2O[C@@H]2O[C@H](CO[C@@H]3O[C@H](CO)[C@@H](O)[C@H](O)[C@H]3O)[C@@H](O)[C@H](O)[C@H]2O)OC=C2C(=O)N3CCc4c([nH]c5cc(O)ccc45)[C@H]3C[C@H]21 here?
A: 79.6%

Q: And the Activity [16]?
A: 46.3%

Q: With C=C[C@H]1COC(=O)C2=CN3CCc4c([nH]c5cccc(O[C@@H]6O[C@H](CO)[C@@H](O)[C@H](O)[C@H]6O)c45)[C@@H]3C[C@H]21 as the molecule, how does the IC50 (Acetylcholinesterase [17]) read?
A: 21.1 µM

Q: Which IC50 [1] does the source give for CC1(C)CC[C@]2(C(=O)O)CC[C@]3(C)C(=CC[C@@H]4[C@@]5(C)CC[C@H](O)C(C)(C)[C@@H]5CC[C@]43C)[C@@H]2C1 [OLEANOLIC_ACID] here?
A: 4.01 µM
